Read-outs that look alike come from different tables or passages of the source.
How the values were obtained:
[1] = system: cultured ventricular myocytes; experiment: cAMP content of cultured ventricular myocytes (125I-cAMP RIA); type: cell-based, rat; conditions: 1 μM DMPX (FIG. 12)
Protocol: When myocytes were to be used for biochemical studies, each of the culture dishes was preincubated for 2 hours with 1 ml of MEM containing 33 μg of laminin in a 37° C. incubator gassed with 5% CO2 in room air. The laminin solution was removed prior to myocyte seeding. After seeding, the dishes were incubated for an additional 2 hours. The settling and short term culture procedures were performed to purify the myocytes so that >95% of the myocytes adhering to the dishes were rod shaped.
Cyclic AMP levels were determined in cultures of ventricular myocytes according to the following method. After the 2-hour incubation period, the MEM was aspirated and replaced with 2 ml of fresh MEM. Adenosine agonists, ISO, or adenosine antagonists were added to the medium bathing the cells at the concentrations and times indicated. The experiment was terminated by removing the medium from the dish and adding 200 μl of 1N HCl over the cultured myocyte surface. The dishes were then frozen in liquid N2 and stored at -70° C. or held on ice momentarily until extraction was initiated.
For assay, the contents of the dishes were transferred (using 1 ml of distilled/deionized H2 O) into microcentrifuge tubes. The extracts were heated for 1 hour at 57° C. and sonicated for 10 minutes. The extracts were then centrifugated at 14,000 x g for 15 minutes. The supernatant was removed, evaporated, reconstituted in 500 μl of 50 mM sodium acetate buffer and assayed for cAMP using an ^125 I-cAMP RIA kit (Amersham). The pellet was solubilized with 0.1N NaOH and protein determined. The cAMP values are reported in pmol cAMP/mg protein of the extract pellet (total cell protein). This cAMP assay procedure routinely provided recovery values in excess of 90%.

rat ventricular myocytes = experiment: Contractile function of individual ventricular myocytes (line scan camera edge detection, paced at 0.5 Hz); type: cell-based; conditions: for activation at 10 µM: Rattus norvegicus, Ventricular myocyte
Protocol: Primary cultures of adult rat ventricular myocytes were prepared essentially according to previously described methods (Romano et al., Am. J. Physiol. 257:H1088 (1989)). Two male Sprague-Dawley rats (Charles River, Wilmington, Mass. or Harlan, Indianapolis, Ind.) were decapitated, and the hearts were rapidly excised and constant pressure (70 cm H2) and nonrecirculated) perfused for 10 minutes through the aortas with filtered (0.45 μm membrane filter) perfusing solution (NaCl, 118 mM; glucose, 10 mM; NaHCO3 25 mM; KCl, 4.69 mM; MgSO4 1.18 mM; and KH2 PO4, 1.18 mM; (pH 7.4)), to which […] was added, at 37° C. After equilibration, the hearts were constant pressure perfused with fresh physiological saline ("PS") containing no added Ca^2+ until spontaneous contractions ceased (i.e., ~30 seconds). The hearts were then perfused for 4-10 minutes in a nonrecirculating manner with PS containing 0.73 mg/ml collagenase, 0.16 mg/ml hyaluronidase, 1 mg/ml recrystallized bovine serum albumin ("BSA") and 48.4 μM Ca^2+ at a rate of 3-4 ml/min/heart. Ventricles, free of atria, were removed from the perfusion system, cut into 8 pieces and placed in a 50 ml Erlenmeyer flask with 5 ml of PS containing 0.73 mg/ml collagenase, 0.16 mg/ml hyaluronidase, 2.5 mg/ml BSA, and 50 μM Ca^2+ (incubation solution). The flask was gently shaken (40 cycles/min) in a reciprocating water bath with continuous gassing (95% O2, 5% CO2) for 7 minutes at 37° C. The incubation solution was aspirated and this shaking procedure was repeated with fresh incubation solution 3-5 times depending on the likelihood that the tissue was ready to dissociate. After the final incubation period, the solution was aspirated and replaced with 10 ml of fresh incubation solution. The flask was then shaken rapidly (120 cycles/min) for 10 minutes with gassing to dissociate the myocytes. The flask contents were filtered through a 250 μm nylon mesh into a 50 ml polypropylene centrifuge tube, to which 40 ml of PS containing 5.95 mg/ml BSA and 99.7 μm Ca^2+ (wash solution) was gradually added.
The myocytes were allowed to settle for 15 minutes, and the upper two thirds of the wash solution was aspirated. Upon the addition of 30-35 ml of wash solution, this settling step was repeated. The wash solution was aspirated and the myocyte pellet was resuspended in 10 ml of minimum essential medium ("MEM"). The myocyte suspension was allowed to settle for 5 minutes and then brought to a final volume of 22 ml with MEM. Two milliliters of the myocyte suspension was seeded onto each of 60 mm culture dishes containing 2 ml of MEM.
The contractile function of individual myocytes was assessed by dispersing 50-100 cells in a 506 μl myocyte chamber (11×23×2 mm deep). The chamber (FIG. 1) was continuously suffused (850 μl/min) with fresh suffusion solution ("SS") in mM: 136.4 NaCl, 4.7 KCl, 1.0 CaCl2, 10 hydroxyethylpiperzine-ethanesulfonicacid (HEPES), 1.0 NaHCO3, 1.2 MgSO4, 1.2 KH2 PO4, 10 glucose, 0.6 ascorbate, 1.0 pyruvate) at 20° C. The chamber was mounted on an inverted microscope stage and contained platinum wire electrodes for initiating myocyte contraction at 0.5 Hz (voltage 10% above threshold for 5 msec duration).
The image of the myocyte was projected via an inverted microscope at 300× onto a line scan camera (Fairchild, Model 1600R) containing a linear array (1×3456) of photodiodes. When aligned with the longitudinal axis of the cell the camera detected the movement of the 2 ends of the myocyte upon contraction (shortening and relengthening). […] When the myocyte was transilluminated, both ends of the cell were easily discriminated. Myocyte length and length change with respect to time for a single contraction was measured by determining the pixels in which the appropriate transitions between light and dark occurred. The line scan camera was calibrated with a stage micrometer scaled in 10 μm divisions. The signals from the camera were directed to a Hewlett Packard computer (Model Vectra RS/20C). […]

[2] = system: ventricular myocyte membrane adenylyl cyclase; experiment: Adenylyl cyclase activity of ventricular myocyte membranes; type: biochemical, rat
Protocol: After a 3-4 hour incubation period, myocytes were harvested by placing the culture dishes on ice; aspirating and discarding the culture medium; scraping the attached cells into 1 ml of ice cold buffer (pH 7.4) containing 10 mM HEPES and 1 mM dithiothreitol (DTT); and transferring the mixture to a 40 ml centrifuge tube. The culture dishes were rinsed twice with buffer, and the rinses were added to the centrifuge tube. The myocytes were centrifuged at 45,000 x g for 45 minutes and the supernatant was discarded. The pellet was resuspended in 40 mM HEPES (pH 7.4) to yield 3.5-4 mg protein/ml and homogenized with a small clearance Dounce tissue grinder (8 strokes). The membranes were centrifugated as described above, resuspended (3-4 mg protein/ml) in 40 mM HEPES (pH 7.4), and assayed for adenylyl cyclase activity immediately or stored at -80° C. and assayed within 10 days.
The assay system used to measure adenylyl cyclase activity minimizes the formation of endogenous adenosine. The assay used was essentially as described by Romano et al. (supra). Myocyte membranes (15-25 μg protein) were incubated in 50 μl of a buffer containing 40 mM HEPES (pH 7.4), 5 mM MgCl2, 1 mM DTT, 5.5 mM KCl, 0.1 mM 2'-deoxy-cAMP (dcAMP), 0.1 mM 2'-deoxy ATP (dATP), 20 mM phosphoenolpyruvate, 2 units pyruvate kinase, 0.25 units adenosine deaminase, 1 mM ascorbic acid, 100 mM NaCl, 0.1 mM ethyleneglycol-bis (β-aminoethylether) N,N,N',N',-tetroaceticacid (EGTA), 10 μM guanosine 5'-triphosphate (GTP), and ~2×10^6 counts/minutes of [α-^32 P]dATP for 20 minutes at 30° C. The reaction was stopped by adding 40 μl of a solution containing 2% sodium dodecyl sulfate (SDS), 45 mM ATP, 1.3 mM cAMP, and [^3 H]dcAMP (~4000 count/min) and by boiling for 2 minutes.

[3] = Table 6, 10^-5 M SHA-082, 10^-5 M NECA, 10^-4 M adenosine, 2 × 10^-7 M DPCPX, 10^-5 M CGS-15943, mean ± SE, N = 6

C#CCn1c(=O)c2c(ncn2C)n(C)c1=O [DMPX, 3,7-dimethyl-1-propargylxanthine]
effect on the increase in cAMP caused by 10 μM CGS-21680 [1]: prevented

CCNC(=O)[C@H]1O[C@@H](n2cnc3c(N)ncnc32)[C@H](O)[C@@H]1O [NECA, N-ethylcarboxamidoadenosine]
activation at 10 µM (rat ventricular myocytes; read-out: increase in DS): 21%
activation at 10 µM (rat ventricular myocytes; read-out: increase in LC): 24%
activation at 10 µM (rat ventricular myocytes; read-out: increase in TPS): 20%
activation at 10 µM (rat ventricular myocytes; read-out: increase in TR): 28%
+dL/dtmax, maximal rate of shortening (rat ventricular myocytes; [3]): 203 ± 9 μm/msec
-dL/dtmax, maximal rate of relaxation (rat ventricular myocytes; [3]): 149 ± 12 μm/msec
DS, duration of shortening (rat ventricular myocytes; [3]): 350 ± 15 ms
LC, maximum length change (shortening) with contraction (rat ventricular myocytes; [3]): 21 ± 2 μm
TPS, time-to-peak shortening (rat ventricular myocytes; [3]): 140 ± 5 ms
TR, time to 75% relaxation (rat ventricular myocytes; [3]): 340 ± 12 ms
contractile responses in the presence of 10 μM CGS-15943 (rat ventricular myocytes; agonist at 10 μM): not observed
increase in adenylyl cyclase activity ([2]; NECA 0 to 1 mM (FIG. 10)): approximately two-fold
EC50 ([2]; without DPCPX, read-out: EC50 for activation of cyclase): 17 ± 5.7 µM
